Measured values reported in publication PMC9395446, “First-in-human phase 1/1b study to evaluate sitravatinib in patients with advanced solid tumors” (Investigational New Drugs, 2022).

Assay: Safety in phase 1/1b study (DLTs, TRAEs, TEAEs; CTCAE v4.03)
Format: in vivo, human
Text: Safety assessments included evaluation of DLTs, AEs, physical examinations, vital sign measurements, electrocardiogram recordings and laboratory tests.
A DLT was defined as a grade ≥ 4 hematologic abnormality lasting ≥ 4 days; grade 3 thrombocytopenia with clinically significant bleeding; febrile neutropenia; clinically significant grade ≥ 3 non-hematologic AEs not related to underlying malignancy; intolerable grade 2 AEs; or toxicity resulting in an inability to deliver 80% of the dose during the first treatment cycle.
The safety population included all patients who received ≥ 1 dose of sitravatinib. […] The PK evaluable population included all patients with sufficient concentration-time data for PK parameter evaluation. The modified intent-to-treat (mITT) population included all phase 1b patients who received ≥ 1 dose of study drug.

[1] = safety population (N = 193), any grade

COCCNCc1ccc(-c2cc3nccc(Oc4ccc(NC(=O)C5(C(=O)Nc6ccc(F)cc6)CC5)cc4F)c3s2)nc1 [sitravatinib, Sitravatinib]
13.5%: Patients discontinued due to TRAEs (safety population (N = 193))
4/28: DLT-evaluable phase 1 patients with a DLT (n/N) (phase 1, 10–200 mg)
20 (62.5) n (%): TEAE grade ≥3 (Phase 1)
2 (6.3) n (%): Blood and lymphatic system disorders TEAE, grade ≥3 (Phase 1) | Cardiac disorders TEAE, grade ≥3 (Phase 1) | Constipation TRAE, any grade (Phase 1) | Diarrhea TRAE, grade ≥3 (Phase 1) | Dizziness TRAE, any grade (Phase 1) | Dysphonia TRAE, any grade (Phase 1) | Hypophosphatemia TEAE, any grade (Phase 1) | Pain in extremity TEAE, any grade (Phase 1) | Proteinuria TEAE, any grade (Phase 1) | Proteinuria TRAE, any grade (Phase 1) | TRAE leading to discontinuation (Phase 1) | UTI TEAE, grade ≥3 (Phase 1) | Weight decreased TRAE, any grade (Phase 1)
62.2%: TRAEs leading to treatment modification (dose reduction or interruption) (safety population (N = 193))
53.4%: Patients with grade ≥ 3 TRAEs (safety population (N = 193))
21 (65.6) n (%): General disorders and administration site conditions TEAE, any grade (Phase 1) | Metabolism and nutrition disorders TEAE, any grade (Phase 1) | Skin and subcutaneous tissue disorders TEAE, any grade (Phase 1)
14.3%: DLT-evaluable phase 1 patients with a DLT (phase 1, 10–200 mg)
0.5%: TRAE leading to death (cardiac arrest) (overall population)
25 (78.1) n (%): Gastrointestinal disorders TEAE, any grade (Phase 1)
0 n (%): Abdominal pain TRAE, any grade (Phase 1) | Abdominal pain TRAE, grade ≥3 (Phase 1) | Asthenia TEAE, grade ≥3 (Phase 1) | Blood creatinine increased TEAE, grade ≥3 (Phase 1) | Constipation TEAE, grade ≥3 (Phase 1) | Constipation TRAE, grade ≥3 (Phase 1) | Cough TEAE, grade ≥3 (Phase 1) | Decreased appetite TRAE, grade ≥3 (Phase 1) | Dizziness TRAE, grade ≥3 (Phase 1) | Dry mouth TEAE, grade ≥3 (Phase 1) | Dry mouth TRAE, grade ≥3 (Phase 1) | Dysphonia TEAE, grade ≥3 (Phase 1) | Dysphonia TRAE, grade ≥3 (Phase 1) | Hypokalemia TEAE, grade ≥3 (Phase 1) | Hypomagnesemia TEAE, grade ≥3 (Phase 1) | Hypothyroidism TRAE, grade ≥3 (Phase 1) | Injury, poisoning, procedural complications TEAE, grade ≥3 (Phase 1) | Nausea TRAE, grade ≥3 (Phase 1) | Proteinuria TRAE, grade ≥3 (Phase 1) | Rash TEAE, grade ≥3 (Phase 1) | Rash TRAE, grade ≥3 (Phase 1) | Stomatitis TEAE, grade ≥3 (Phase 1) | Stomatitis TRAE, grade ≥3 (Phase 1) | TRAE leading to death (Phase 1) | Vomiting TRAE, grade ≥3 (Phase 1) | Weight decreased TEAE, grade ≥3 (Phase 1) | Weight decreased TRAE, grade ≥3 (Phase 1)
9 (28.1) n (%): Headache TEAE, any grade (Phase 1) | Renal and urinary disorders TEAE, any grade (Phase 1) | Serious TEAE (Phase 1)
43.0%: TRAE fatigue [1]
7 (21.9) n (%): Blood and lymphatic system disorders TEAE, any grade (Phase 1) | Decreased appetite TRAE, any grade (Phase 1) | Dyspnea TEAE, any grade (Phase 1) | Edema peripheral TEAE, any grade (Phase 1) | Psychiatric disorders TEAE, any grade (Phase 1)
5 (15.6) n (%): Anemia TEAE, any grade (Phase 1) | Constipation TEAE, any grade (Phase 1) | Dehydration TEAE, any grade (Phase 1) | Dizziness TEAE, any grade (Phase 1) | Dysphonia TEAE, any grade (Phase 1) | Hypertension TRAE, grade ≥3 (Phase 1) | Infections and infestations TEAE, grade ≥3 (Phase 1) | Rash TEAE, any grade (Phase 1) | TEAE leading to discontinuation (Phase 1)
11 (34.4) n (%): Hypertension TEAE, any grade (Phase 1) | Vomiting TEAE, any grade (Phase 1)
20.7%: Grade ≥ 3 TRAE hypertension (safety population (N = 193))
10 (31.3) n (%): TRAE grade ≥3 (Phase 1)
12 (37.5) n (%): Cough TEAE, any grade (Phase 1) | TRAE leading to treatment modification (Phase 1)
15.0%: Treatment modification due to fatigue (safety population (N = 193)) | Treatment modification due to hypertension (safety population (N = 193))
150 mg: Maximum tolerated dose (MTD) (daily (QD), phase 1 dose escalation, mTPI method)
one: Patients with DLT (phase 1, 80 mg)
22 (68.8) n (%): Respiratory, thoracic and mediastinal disorders TEAE, any grade (Phase 1)
14 (43.8) n (%): Nervous system disorders TEAE, any grade (Phase 1)
2.1%: Discontinuation due to diarrhea, nausea and fatigue (each) (safety population (N = 193))
1 (3.1) n (%): Anemia TEAE, grade ≥3 (Phase 1) | Decreased appetite TEAE, grade ≥3 (Phase 1) | Dehydration TEAE, grade ≥3 (Phase 1) | Edema peripheral TEAE, grade ≥3 (Phase 1) | Fatigue TRAE, grade ≥3 (Phase 1) | Hypophosphatemia TEAE, grade ≥3 (Phase 1) | Lipase increased TEAE, grade ≥3 (Phase 1) | Nausea TEAE, grade ≥3 (Phase 1) | PPE syndrome TEAE, grade ≥3 (Phase 1) | PPE syndrome TRAE, grade ≥3 (Phase 1) | Psychiatric disorders TEAE, grade ≥3 (Phase 1) | Skin and subcutaneous tissue disorders TEAE, grade ≥3 (Phase 1) | Vomiting TEAE, grade ≥3 (Phase 1)
8 (25.0) n (%): Back pain TEAE, any grade (Phase 1) | Diarrhea TRAE, any grade (Phase 1) | Hypertension TRAE, any grade (Phase 1)
17.6%: Treatment modification due to diarrhea (safety population (N = 193))
19 (59.4) n (%): Musculoskeletal and connective tissue disorders TEAE, any grade (Phase 1)
6 (18.8) 6 (18.8) n (%): Endocrine disorders TEAE, any grade (Phase 1) | Hypertension TEAE, grade ≥3 (Phase 1) | Hypothyroidism TEAE, any grade (Phase 1) | Vascular disorders TEAE, grade ≥3 (Phase 1)
3.6%: Each reported DLT (fatigue, mucosal inflammation, peripheral sensory neuropathy, PPE syndrome), share of phase 1 population (phase 1, n = 1 each)
10.4%: Grade ≥ 3 TRAE diarrhea (safety population (N = 193))
30.1%: TRAE nausea [1]
16 (50.0) n (%): Infections and infestations TEAE, any grade (Phase 1) | Investigations TEAE, any grade (Phase 1)
3 (9.4) n (%): Blood creatinine increased TEAE, any grade (Phase 1) | Cardiac disorders TEAE, any grade (Phase 1) | Diarrhea TEAE, grade ≥3 (Phase 1) | Dyspnea TEAE, grade ≥3 (Phase 1) | Fatigue TEAE, grade ≥3 (Phase 1) | General disorders and administration site conditions TEAE, grade ≥3 (Phase 1) | Hypokalemia TEAE, any grade (Phase 1) | Hypomagnesemia TEAE, any grade (Phase 1) | Hyponatremia TEAE, any grade (Phase 1) | Hyponatremia TEAE, grade ≥3 (Phase 1) | Hypothyroidism TRAE, any grade (Phase 1) | Lipase increased TEAE, any grade (Phase 1) | Neoplasms benign, malignant, unspecified TEAE, any grade (Phase 1) | Neoplasms benign, malignant, unspecified TEAE, grade ≥3 (Phase 1) | Serious TRAE (Phase 1) | Stomatitis TRAE, any grade (Phase 1) | TEAE leading to death (Phase 1) | UTI TEAE, any grade (Phase 1)
15 (46.9) n (%): Decreased appetite TEAE, any grade (Phase 1)
11.9%: Treatment modification due to PPE syndrome (safety population (N = 193))
24 (75.0) n (%): Any TRAE (Phase 1)
31 (96.9) n (%): Any TEAE (Phase 1)
4 (12.5) n (%): Asthenia TEAE, any grade (Phase 1) | Dry mouth TRAE, any grade (Phase 1) | Gastrointestinal disorders TEAE, grade ≥3 (Phase 1) | Injury, poisoning, procedural complications TEAE, any grade (Phase 1) | Metabolism and nutrition disorders TEAE, grade ≥3 (Phase 1) | PPE syndrome TEAE, any grade (Phase 1) | PPE syndrome TRAE, any grade (Phase 1) | Rash TRAE, any grade (Phase 1) | Respiratory, thoracic and mediastinal disorders TEAE, grade ≥3 (Phase 1) | Stomatitis TEAE, any grade (Phase 1) | Weight decreased TEAE, any grade (Phase 1)
17 (53.1) n (%): Fatigue TEAE, any grade (Phase 1)
90.2%: Patients with any TRAE (safety population (N = 193))
7.3%: Grade ≥ 3 TRAE fatigue (safety population (N = 193))
40.4%: TRAE hypertension [1]
6 (18.8) n (%): Dry mouth TEAE, any grade (Phase 1) | Investigations TEAE, grade ≥3 (Phase 1) | Nausea TRAE, any grade (Phase 1) | Vomiting TRAE, any grade (Phase 1)
120 mg: Recommended dose for further exploration (QD, defined in phase 1b due to tolerability)
50.8%: TRAE diarrhea [1]
three: Patients with DLT (phase 1, 200 mg)
13 (40.6) n (%): Diarrhea TEAE, any grade (Phase 1) | Fatigue TRAE, any grade (Phase 1) | Nausea TEAE, any grade (Phase 1) | TEAE leading to treatment modification (Phase 1) | Vascular disorders TEAE, any grade (Phase 1)
